Measurements published in patent publication US20080214661A1, “Process To Obtain Dibenzylbutyrolactonic, Tetrahydrofuranic Lignans And Their Synthetic And Semi-Synthetic Derivatives, Their Analgesic And Anti-Inflammatory Activities, Topical And/Or Systemic Formulations Containing Said Lignans And Their Respective Therapeutic Method” (FUNDACADO DE AMPARO A PESQUISA DO ESTADO DE SAO PAULO, priority 2005, published 2008).

Assays:
Format in all cases: in vivo
[1] = system: rat foot edema induced by carrageenin; test: rat foot edema induced by carrageenin; conditions: oral administration; for inhibition as anti-inflammatory agent (rat foot edema): doses of 10, 20, 30 and 40 mg/kg, carrageenin 100 μg/foot, edema volume at third hour, dose for the value not stated
Procedure: Each bar represents the average ±SE (n=6) of the increase in edema volume (third hour) after the injection of carrageenin. Data were analyzed by one-way ANOVA and by Dunnett's multiple comparison variation test and the statistical significance was made for the level of p<0.05 (*) and p<0.01 (**).

[2] = system: writhing induced by 0.6% acetic acid solution in mice; test: writhing test induced by intraperitoneal injection of acetic acid; conditions: oral administration, doses of 10, 20, 30 and 40 mg/kg; 0.6% acetic acid i.p. in mice; number of writhing in 20 minutes; dose for the value not stated
Procedure: Each bar represents the average ±SE (n=6) of the number of writhing in 20 minutes for different doses. Data were analyzed by one-way ANOVA and by Dunnett's multiple comparison variation test and the statistical significance was made for the level of p<0.05 (*) and p<0,01 (**)

[3] = system: digestive system; test: preliminary tests of side effects (gastric, biochemical, hematological)

Compound | inhibition as anti-inflammatory agent (rat foot edema) [1] [%] | inhibition as analgesic agent (writhing test) [2] [%] | gastric effects [3] | other biochemical and hematological disturbances [3] | efficacy as anti-inflammatory agent ([1]; 10-40 mg/kg, carrageenin-induced rat foot edema)
Nc1cc2c(cc1CC1COC(=O)C1Cc1cc3c(cc1N)OCO3)OCO2 (single isomer, unassigned; (-)) [compound 8, (-)-6,6′-diaminohinokinin] | 82 | 92 | not evident | non-occurrence | 
O=C1OC[C@@H](Cc2ccc3c(c2)OCO3)[C@@H]1Cc1ccc2c(c1)OCO2 [compound 6, (-)-hinokinin] | 71 | 95 | not evident | non-occurrence | 
c1ccc(COC2OC[C@@H](Cc3ccc4c(c3)OCO4)[C@@H]2Cc2ccc3c(c2)OCO3)cc1 (stereo partly drawn) [compound 5, (-)—O-benzyl cubebin] |  | 89 |  |  | not efficient as an anti-inflammatory agent
(-)-6,6′-dinitroinokinin [compound 7] | 62 | 75 |  |  | 
COc1ccc2c(c1)c(CC(=O)O)c(C)n2C(=O)c1ccc(Cl)cc1 [indomethacin, reference compound] |  |  | gastric effects as observed |  | 
